Our source for the EC50 values is patent publication US9067898B1, “Isothiazole derivatives as GPR120 agonists for the treatment of type II diabetes” (Janssen Pharmaceutica NV, priority 2014, dated 2015).

Common to all, as to assay type: cell-based
The target in assay [1] is T1, short form of the GPR120 receptor (GPR120S) (Homo sapiens, UniProt Q5NUL3).
T1 construct: host or cells: PathHunter CHO-K1 GPR120S β-Arrestin Cell Line
Put plainly: Human GPR120 DiscoveRx PathHunter Beta-Arrestin assay, Procedure β-arrestin B. The conditions noted are these: PathHunter CHO-K1 GPR120S β-Arrestin cell line, 5000 cells/well, read-out: hGPR120 β-arrestin B EC50. The text has this:
The binding of an agonist (medium/long chain fatty acids or small molecule agonists) to the G-protein-coupled receptor GPR120 activates phospholipase C, leading to release of intracellular Ca^+2 through the generation of inositol 1,4,5-trisphosphate (InsP3 or IP3). GPR120 activation can also trigger intracellular signaling via recruitment of Beta-Arrestin. In the present method, agonist-induced activation of the human GPR120 receptor is monitored through the use of PathHunter CHO-K1 GPR120 Beta-Arrestin Cell Line engineered by DiscoveRx, as detailed below. The cell lines are designed to co-express both the ProLink/Enzyme Donor (PK)-tagged GPCR and the Enzyme […] (EA)-tagged Beta-Arrestin fusion proteins. Upon GPR120 receptor stimulation/activation, the EA-tagged Beta-Arrestin portion is translocated to the tagged receptor, where the two enzyme fragments are brought within close proximity. Under these conditions, these fragments can interact and form an active Beta-gal enzyme complex through Enzyme Fragment Complementation (EFC). This active Beta-gal complex can enzymatically hydrolyse the substrate to produce a detectable light signal; therefore, activation as a function of agonist concentration can be expressed as an EC50 value to determine relative compound activities. This in vitro assay therefore serves to assess compound agonist activity of the GPR120. Procedure β-Arrestin A: In Procedure β-arrestin A, the cell used were PathHunter CHO-K1 GPR120 β-Arrestin Cell Line, expressing the long form of human GPR120 (Genbank accession number NM 181745), with 3000 cells per well. Procedure β-Arrestin B: In Procedure 3-arrestin B the cells used were PathHunter CHO-K1 GPR120S β-Arrestin Cell Line, expressing the short form of the GPR120 receptor (Accession #NM_181745), with 5000 cells/well. Assay Procedure:
The selected CHO-K1 GPR120 β-Arrestin cells were cultured in Ham's F12 media supplemented with 10% fetal bovine serum (FBS), 1% Glutamine, lx p/s, 800 μg/mL G418 and 300 μg/mL Hygromycin B (for selection). Cell stocks were maintained and grown in a sub-confluent state using standard cell culture procedures. The day before the experiment, the cells were harvested with non-enzymatic cell dissociation buffer and re-suspended in complete growth media at the desired concentration. A Corning 384-plate was then seeded with the proper number of cells in a volume of 25 μL, per well. The seeded plates were incubated overnight at 37° C.
On the day of the experiment, the Assay Buffer containing (a) HBSS with Ca^++ and Mg^++, (b) 20 mM HEPES, and (c) 0.1% BSA stabilizer (pH 7.4) was prepared. The growth medium was gently removed from the cell plates and 20 μL of Assay Buffer added to each well. The plate was then incubated at 37° C. for 60 min. Test compounds were serially diluted in Assay Buffer to desired concentrations (more particularly to one or more of the following μM concentrations: 25, 12.5, 6.25, 3.125, 1.5625, 0.78125, 0.390625, 0.1953125, 0.09765625, 0.048828125, 0.024414063, 0.012207031). Five μL of compound dilution was then added to each well and the plate incubated at 37° C. for 90 min. The detection reagents were prepared according to the manufacture's instruction. Twelve μL of the detection reagents were added to each well and the plate incubated at room temperature for 60 min.
The plates were read on an EnVision instrument, using Protocol name: Luminescence, Plate type: 384 Costar, Measurement height: 3 mm, Measurement time: 1 s, Aperture: 384 Plate aperture. The % activity relative to the positive control was calculated using the following equation:
The % Activity values were plotted versus the concentration of test compound and fitted to a sigmoidal dose-response curve with a Hill slope=1 (fixed value) using nonlinear regression with GraphPad Prism 5.0 to calculate the EC50 values. […]

The target in a further assay is T2, Human GPR120 short form (Homo sapiens, UniProt Q5NUL3).
T2 construct: expressed in transfected cells
T2 sequence (Q5NUL3 1-361): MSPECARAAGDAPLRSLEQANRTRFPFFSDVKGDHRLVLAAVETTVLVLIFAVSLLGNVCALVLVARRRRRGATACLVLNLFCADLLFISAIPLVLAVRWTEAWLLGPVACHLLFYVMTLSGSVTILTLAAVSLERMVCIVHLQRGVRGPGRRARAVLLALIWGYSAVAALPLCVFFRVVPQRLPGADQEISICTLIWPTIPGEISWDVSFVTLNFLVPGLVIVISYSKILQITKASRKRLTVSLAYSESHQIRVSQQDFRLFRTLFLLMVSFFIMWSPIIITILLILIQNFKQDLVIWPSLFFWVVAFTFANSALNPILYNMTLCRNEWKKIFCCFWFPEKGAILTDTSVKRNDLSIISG
Put plainly: Human GPR120 calcium flux assay (FLIPR), Procedure Calcium A. To be noted: HEK-293 cells expressing human GPR120 short form, 2500 cells/well; read-out: GPR120 Ca2+ Assay A EC50. In a few lines:
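HEK293 cells stably expressing the short isoform (NM_001195755.1), 2500/well, starved 1 h, then loaded with Fluo-4 NW plus probenecid (30 min 37 °C, 15 min RT). Compound solutions 0.012–100 μM, 0.2% DMSO final; FLIPR read 300 s after addition. EC50 from Fmax−Fmin fitted to variable-slope sigmoid (Hill <2).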
A general note: A change in cytosolic calcium serves as a functional read-out for many receptors and channels.

For assay [2], the target named is T3, long form of human GPR120 (Homo sapiens, UniProt Q5NUL3).
T3 construct: host or cells: PathHunter CHO-K1 GPR120 β-Arrestin Cell Line
T3 sequence (Q5NUL3 1-377 isoform Q5NUL3-1): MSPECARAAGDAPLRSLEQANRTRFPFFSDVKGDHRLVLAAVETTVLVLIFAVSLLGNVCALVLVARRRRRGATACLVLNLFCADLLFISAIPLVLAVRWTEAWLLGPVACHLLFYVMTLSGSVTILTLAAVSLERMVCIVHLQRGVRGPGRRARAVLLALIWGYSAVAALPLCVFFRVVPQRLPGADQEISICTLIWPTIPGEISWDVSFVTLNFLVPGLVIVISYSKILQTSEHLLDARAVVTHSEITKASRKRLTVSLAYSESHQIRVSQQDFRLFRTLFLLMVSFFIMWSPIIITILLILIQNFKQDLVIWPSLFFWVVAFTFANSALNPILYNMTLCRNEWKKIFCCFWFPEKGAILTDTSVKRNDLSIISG
T3 sequence (P32121 whole entry partner): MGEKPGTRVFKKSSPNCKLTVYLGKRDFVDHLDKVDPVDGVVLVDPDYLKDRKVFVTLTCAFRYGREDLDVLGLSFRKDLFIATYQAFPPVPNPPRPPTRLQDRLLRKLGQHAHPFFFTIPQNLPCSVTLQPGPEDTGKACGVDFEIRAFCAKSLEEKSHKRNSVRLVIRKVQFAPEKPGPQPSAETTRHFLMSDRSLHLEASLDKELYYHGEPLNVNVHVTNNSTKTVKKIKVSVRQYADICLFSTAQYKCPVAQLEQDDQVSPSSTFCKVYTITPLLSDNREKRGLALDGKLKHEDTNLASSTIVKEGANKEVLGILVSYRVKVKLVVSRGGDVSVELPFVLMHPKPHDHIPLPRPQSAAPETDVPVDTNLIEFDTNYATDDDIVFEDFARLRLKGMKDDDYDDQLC
Put plainly: Human GPR120 DiscoveRx PathHunter Beta-Arrestin assay, Procedure β-arrestin A. To be noted: PathHunter CHO-K1 GPR120 β-Arrestin cell line, 3000 cells per well, read-out: hGPR120 β-arrestin A EC50. In a few lines: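 PathHunter CHO-K1 β-arrestin cells expressed long-form GPR120 (Procedure A, 3000 cells/well) or short-form GPR120 (Procedure B, 5000 cells/well). Compounds were serially diluted from 25 µM and incubated 90 min at 37 °C in HBSS/20 mM HEPES/0.1% BSA, pH 7.4. Luminescence was read after 60 min detection at RT; EC50 comes from % activity versus positive control, Hill slope fixed at 1.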

Broadly, the EC50 is the concentration giving half of the maximal effect.

T1 sequence (P32121 whole entry partner, one chain of several): as the sequence (P32121 whole entry partner) above

On to “3-(4-((3-(2,4-difluorophenyl)-5-(trifluoromethyl)isothiazol-4-yl)methoxy)-3,5-difluorophenyl)propanoic acid [Cpd 174]”, for which the EC50 was found to be 1510 nM in assay [1] and 382 nM on Human GPR120 short form.

As to “3-(4-((3-(4-ethylphenyl)-5-(trifluoromethyl)isothiazol-4-yl)methoxy)-2,3,5-trifluorophenyl)propan-1-ol [Cpd 238]”, the EC50 in assay [1] is 310 nM; at Human GPR120 short form it was 107 nM.

In the case of “3-(4-[[3-(4-ethylphenyl)-5-methoxy-1,2-thiazol-4-yl]methoxy]-2,3-dimethylphenyl)propanoic acid [Cpd 228]”, the EC50 in assay [1] is 118 nM; at Human GPR120 short form, 89 nM.

On to “3-(4-[[5-(4-chlorophenyl)-3-(trifluoromethyl)-1,2-thiazol-4-yl]methoxy]-2-(trifluoromethoxy)phenyl) propanoic acid [Cpd 159]”, for which the EC50 in assay [1] came out at 819 nM; on Human GPR120 short form it was 274 nM. As to “3-(4-[[5-chloro-3-(4-chlorophenyl)thiophen-2-yl]methoxy]-2,3-dimethylphenyl) propanoic acid [Cpd 6]”, the results for the EC50 (in assay [1]; on Human GPR120 short form) were 1940 nM and 405 nM, respectively.

Consider `Cc1ccc(-c2nsc(C(F)(F)F)c2COc2ccc(CCC(=O)O)c(C)c2C)c(F)c1` [Cpd 89, 3-(4-[[3-(2-fluoro-4-methylphenyl)-5-(trifluoromethyl)-1,2-thiazol-4-yl]methoxy]-2,3-dimethylphenyl)propanoic acid], for which the EC50 in assay [1] was 416 nM; on Human GPR120 short form it was 67 nM.

For the molecule `CC(Cc1cc(F)c(OCc2c(-c3ccc(Cl)c(F)c3)nsc2C(F)(F)F)c(F)c1)C(=O)O` (stereo not drawn) [Cpd 90, 3-(4-((3-(4-chloro-3-fluorophenyl)-5-(trifluoromethyl)isothiazol-4-yl)methoxy)-3,5-difluorophenyl)-2-methylpropanoic acid], the EC50 was found to be 154 nM in assay [1] and 67 nM at Human GPR120 short form. The corresponding values for `Cc1ccc(-c2nsc(C(F)(F)F)c2COc2c(F)cc(CCC(=O)O)cc2F)cc1F` [Cpd 91, 3-(3,5-difluoro-4-[[3-(3-fluoro-4-methylphenyl)-5-(trifluoromethyl)-1,2-thiazol-4-yl]methoxy]phenyl)propanoic acid] are 31 nM and 69 nM. Turning to `COc1cccc(-c2nsc(C(F)(F)F)c2COc2c(F)cc(CCC(=O)O)cc2F)c1` [Cpd 94, 3-(3,5-difluoro-4-[[3-(3-methoxyphenyl)-5-(trifluoromethyl)-1,2-thiazol-4-yl]methoxy]phenyl)propanoic acid], the EC50 in assay [1] turned out to be 104 nM; at Human GPR120 short form, 71 nM. For `Cc1ccc(-c2snc(C(F)(F)F)c2COc2c(F)cc(CCC(=O)O)cc2F)c(F)c1` [Cpd 95, 3-(3,5-difluoro-4-[[5-(2-fluoro-4-methylphenyl)-3-(trifluoromethyl)-1,2-thiazol-4-yl]methoxy]phenyl)propanoic acid], in that order: 116 nM and 72 nM. For `Cc1ccc(-c2nsc(C(F)(F)F)c2COc2ccc(CCC(=O)O)c(C)c2C)cc1F` [Cpd 109, 3-(4-[[3-(3-fluoro-4-methylphenyl)-5-(trifluoromethyl)-1,2-thiazol-4-yl]methoxy]-2,3-dimethylphenyl)propanoic acid], in that order: 75 nM and 89 nM.

Take `O=C(O)CCc1cc(F)c(OCc2c(C(F)(F)F)nsc2-c2ccc(Cl)c(F)c2)c(F)c1` [Cpd 110, 3-(4-[[5-(4-chloro-3-fluorophenyl)-3-(trifluoromethyl)-1,2-thiazol-4-yl]methoxy]-3,5-difluorophenyl) propanoic acid]: the EC50 in assay [1] is 105 nM; on Human GPR120 short form, 94 nM. Take `O=C(O)CCc1cc(F)c(OCc2c(-c3ccc(C(F)(F)F)cc3)nsc2C(F)(F)F)c(F)c1` [Cpd 121, 3-(3,5-difluoro-4-[[5-(trifluoromethyl)-3-[4-(trifluoromethyl)phenyl]-1,2-thiazol-4-yl]methoxy]phenyl)propanoic acid]: the EC50 in assay [1] was found to be 51 nM; on Human GPR120 short form, 108 nM. The corresponding values for `COc1cccc(-c2nsc(C(F)(F)F)c2COc2ccc(CCC(=O)O)c(C)c2C)c1` [Cpd 126, 3-(4-[[3-(3-methoxyphenyl)-5-(trifluoromethyl)-1,2-thiazol-4-yl]methoxy]-2,3-dimethylphenyl) propanoic acid] are 223 nM and 121 nM. For `CCc1ccc(-c2nsc(C(F)(F)F)c2COc2c(F)cc(CCC(=O)O)cc2F)c(F)c1` [Cpd 128, 3-(4-((3-(4-ethyl-2-fluorophenyl)-5-(trifluoromethyl)isothiazol-4-yl)methoxy)-3,5-difluorophenyl)propanoic acid], in that order: 59 nM and 124 nM.

For the molecule `O=C(O)CCc1cc(F)c(OCc2c(-c3ccc(F)c(F)c3)nsc2C(F)(F)F)c(F)c1` [Cpd 129, 3-(4-((3-(3,4-difluorophenyl)-5-(trifluoromethyl)isothiazol-4-yl)methoxy)-3,5-difluorophenyl)propanoic acid], in assay [1], the EC50 turned out to be 116 nM. For `Cc1c(CCC(=O)O)ccc(OCc2c(C(F)(F)F)nsc2-c2ccc(Cl)c(F)c2)c1C` [Cpd 136, 3-(4-[[5-(4-chloro-3-fluorophenyl)-3-(trifluoromethyl)-1,2-thiazol-4-yl]methoxy]-2,3-dimethylphenyl)propanoic acid], the EC50 was determined as 526 nM in assay [1] and 135 nM at Human GPR120 short form. As to `COc1ccc(-c2nsc(C(F)(F)F)c2COc2c(F)cc(CCC(=O)O)cc2F)cc1F` [Cpd 237, 3-(3,5-difluoro-4-[[3-(3-fluoro-4-methoxyphenyl)-5-(trifluoromethyl)-1,2-thiazol-4-yl]methoxy]phenyl)propanoic acid], in assay [1], the EC50 came to 96 nM.

As for `CCc1ccc(-c2nsc(C(F)(F)F)c2COc2c(F)cc(CCCO)c(F)c2F)cc1` [Cpd 238, 3-(4-((3-(4-ethylphenyl)-5-(trifluoromethyl)isothiazol-4-yl)methoxy)-2,3,5-trifluorophenyl)propan-1-ol], the EC50 came to 521 nM on Human GPR120 short form and 90 nM in assay [2].
